The record followed here is patent publication US20260191850A1, “USE OF 8-HYDROXYQUINOLINE DERIVATIVE” (Jiangsu Yahong Meditech Co., Ltd., priority 2022, published 2026).

“And” between values parts separate entries of the source, which are not always exact repeats. Equal entries are not always repeated. Structures can show the parent of a compound that is named as a salt. Where two headings read alike, the source gives them in different places.

The test system of series [1] is Human Papillomavirus 11 (HPV11). In words: Transient transfection HPV replication assay (E1/E2 plasmids, NanoLuc reporter), HPV11. The settings on record: HPV11 strain HE611260.1, C-33 A cells; for EC50: 48 hours. It is filed as cell-based. The procedure:
The antiviral activity of 7-nitro-8-hydroxyquinoline derivatives against human papillomavirus (HPV) was tested and evaluated using transient transfection assays. This evaluation system included plasmids expressing viral helicase E1 and replication origin binding protein E2, plasmids containing NanoLuc gene of which the expression was driven by a TK promoter (Promega company), and replication origin sequences of human papillomavirus strains listed below. […] The positions of replication origin sequences of the three NanoLuc reporter plasmids were 7825-7993:1-99, 7662-7901:1-99, and 7740-7837:1-102 for HPV-11 (NCBI Accession No. HE611260.1), HPV-16 (NCBI Accession No. KP212151.1), and HPV-18 (NCBI Accession No. KC470230.1), respectively. The positions of E1 open reading frame (ORF) sequences corresponding to HPV-11, HPV-16 and HPV-18 were 832-2781, 864-2813 and 914-2887 in the same sequences, respectively. The positions of E2 open reading frame (ORF) sequences corresponding to HPV-11, HPV-16 and HPV-18 were 2723-3826, 2755-3852 and 2817-3908 in the same sequences, respectively. The cells used for transient transfection were C-33A cells (ATCC HTB-31), and the culture medium was DMEM supplemented with Earle's salt, L-glutamine and 2% fetal bovine serum. In the experiment, the NanoLuc expression plasmid (5 ng/well) was co-transfected with the E1 and E2 expression plasmids of the homologous virus by using Lipofectamine LTXL and Plus Reagent (Invitrogen product, Thermo Fisher Scientific company). […] Meanwhile, the transfected cells were also seeded into duplicated dishes containing the same dilution of test drugs to assess cytotoxicity. All transfected monolayer cells were incubated at 37° C. for 48 hours. The NanoLuc activity expressed by the reporter plasmids was detected with Nano-Glo reagent (Promega company), the cell viability in cytotoxicity plates was measured with CellTiter-Glo reagent (Promega company), and the luminescence intensity was quantified on a microplate reader. The meanings of EC50, CC50, and SI50 were the same as those well-known in the art (where SI50=CC50/EC50), and were not described here. […]

For series [2], the system named is C-33A cells (ATCC HTB-31). In words: in vitro. The procedure: (§1) The antiviral activity of 7-nitro-8-hydroxyquinoline derivatives against human papillomavirus (HPV) was tested and evaluated using transient transfection assays. This evaluation system included plasmids expressing viral helicase E1 and replication origin binding protein E2, plasmids containing NanoLuc gene of which the expression was driven by a TK promoter (Promega company), and replication origin sequences of human papillomavirus strains listed below. […] The positions of replication origin sequences of the three NanoLuc reporter plasmids were 7825-7993:1-99, 7662-7901:1-99, and 7740-7837:1-102 for HPV-11 (NCBI Accession No. HE611260.1), HPV-16 (NCBI Accession No. KP212151.1), and HPV-18 (NCBI Accession No. KC470230.1), respectively. The positions of E1 open reading frame (ORF) sequences corresponding to HPV-11, HPV-16 and HPV-18 were 832-2781, 864-2813 and 914-2887 in the same sequences, respectively. The positions of E2 open reading frame (ORF) sequences corresponding to HPV-11, HPV-16 and HPV-18 were 2723-3826, 2755-3852 and 2817-3908 in the same sequences, respectively. The cells used for transient transfection were C-33A cells (ATCC HTB-31), and the culture medium was DMEM supplemented with Earle's salt, L-glutamine and 2% fetal bovine serum. In the experiment, the NanoLuc expression plasmid (5 ng/well) was co-transfected with the E1 and E2 expression plasmids of the homologous virus by using Lipofectamine LTXL and Plus Reagent (Invitrogen product, Thermo Fisher Scientific company). […] Meanwhile, the transfected cells were also seeded into duplicated dishes containing the same dilution of test drugs to assess cytotoxicity. All transfected monolayer cells were incubated at 37° C. for 48 hours. The NanoLuc activity expressed by the reporter plasmids was detected with Nano-Glo reagent (Promega company), the cell viability in cytotoxicity plates was measured with CellTiter-Glo reagent (Promega company), and the luminescence intensity was quantified on a microplate reader. The meanings of EC50, CC50, and SI50 were the same as those well-known in the art (where SI50=CC50/EC50), and were not described here.
(§2) J Med Chem. 2016; 59 (23): 10470-8. • Kachaeva, M. et al. In vitro activity of novel 1,3-oxazole derivatives against HPV. Ibnosina J Med Biomed Sci. 2017; 9 (4): 111-8.

Series [3] is described as follows: in vitro. The settings on record: human. The procedure: as §1, §2
Series [4] has as its system Human Papillomavirus 16 (HPV16). In words: Transient transfection HPV replication assay (E1/E2 plasmids, NanoLuc reporter), HPV16. It is filed as cell-based. The procedure:
as §1, §2

Series [5] relates to Human Papillomavirus 18 (HPV18). In words: Transient transfection HPV replication assay (E1/E2 plasmids, NanoLuc reporter), HPV18. The class given is cell-based. The conditions noted are these: HPV18 strain KC470230.1, C-33 A cells; for EC50: 48 hours. The procedure: as §1, §2
Setting [6] is: Human papillomavirus 16, C-33-A, 48 h.
The mark [7] stands for this setting: C-33 A cells transfected with HPV11 (HE611260.1) plasmids, 48 hours.
The mark [8] stands for this setting: C-33 A cells transfected with HPV16 (KP212151.1) plasmids, 48 hours.
Where [9] appears, read: C-33 A cells transfected with HPV18 (KC470230.1) plasmids, 48 hours.

Take “4-methoxy-7-nitroquinolin-8-ol [Example 21]”: the half-maximal effective concentration (EC50) in series [1] is > 6 µM. The CC50 in series [2] is 22.2 µM.

As for `CNc1c([N+](=O)[O-])c(O)c2ncccc2c1Cl` [Compound 7, 5-chloro-6-(methylamino)-7-nitroquinolin-8-ol], the EC50 in series [1] (human papillomavirus 11) stood at 5.22 µM. In series [3] (CC50), the CC50 at 48 h was 19.1 µM.

For `O=[N+]([O-])c1cc(Cl)c2c(Cl)ccnc2c1O` [Compound 29, 4,5-dichloro-7-nitroquinolin-8-ol], the EC50 in series [1] (human papillomavirus 11) was determined as 2.96 µM. In addition, the CC50 at 48 h in series [3] stood at 8.74 µM.

Take `O=[N+]([O-])c1ccc2c(C3CCCCC3)ccnc2c1O` [Compound 32, 4-cyclohexyl-7-nitroquinolin-8-ol]: the EC50 in series [1] (human papillomavirus 11) was < 0.05 µM; in series [4] (setting [6]), 0.08 µM; in series [5] (human papillomavirus 18), < 0.05 µM.

Turning to `O=[N+]([O-])c1cc(Cl)c2c(N3CCCCC3)ccnc2c1O` [Compound 36, 5-chloro-7-nitro-4-piperidinylquinolin-8-ol], the figures for the EC50 in series [1] (human papillomavirus 11), in series [4] (setting [6]) and in series [5] (human papillomavirus 18) were < 0.05 µM, 0.69 µM and 0.27 µM, respectively.

In the case of `O=[N+]([O-])c1ccc2c(C(F)(F)F)ccnc2c1O` [Compound 62, 7-nitro-4-trifluoromethylquinolin-8-ol], the EC50 in series [1] (human papillomavirus 11) was > 1.2 µM. In series [3] (CC50), this compound registered a CC50 at 48 h of 5.5 µM.

For the compound `O=[N+]([O-])c1cc(Cl)c2c(C(F)(F)F)ccnc2c1O` [Compound 73, 5-chloro-7-nitro-4-(trifluoromethyl)-quinolin-8-ol hydrochloride], the EC50 in series [1] (human papillomavirus 11) came to 0.06 µM; in series [4] (setting [6]), 0.07 µM. Also, the CC50 at 48 h worked out at 8.5 µM in series [3] (CC50, C-33 A cells transfected with HPV11 (HE611260.1) plasmids, 48 hours) and 8.32 µM in series [3] (CC50, C-33 A cells transfected with HPV16 (KP212151.1) plasmids, 48 hours).

Regarding `O=[N+]([O-])c1ccc2c(Cl)c(C3CC3)cnc2c1O` [Compound 74, 4-chloro-3-cyclopropyl-7-nitroquinolin-8-ol], the EC50 in series [1] (human papillomavirus 11) was 0.57 µM; in series [4] (setting [6]) it was 0.15 µM; in series [5] (human papillomavirus 18), < 0.05 µM. The CC50 at 48 h in series [3] (CC50) came out at 34.4 µM.

As for `O=[N+]([O-])c1c(Br)c(Cl)c2cccnc2c1O` [Compound 114, 6-bromo-5-chloro-7-nitroquinolin-8-ol], in series [1] (human papillomavirus 11), the EC50 was > 6 µM. The compound further had a CC50 at 48 h in series [3] of 30 µM.

Turning to `O=[N+]([O-])c1c(Cl)c(Cl)c2cccnc2c1O` [Compound 115, 5,6-dichloro-7-nitroquinolin-8-ol], in series [1] (human papillomavirus 11), the EC50 is > 30 µM. Further, the CC50 at 48 h in series [3] (CC50) stood at 112 µM.

For `O=[N+]([O-])c1c(Cl)c(F)c2cccnc2c1O` [Compound 123, 6-chloro-5-fluoro-7-nitroquinolin-8-ol], in series [1] (human papillomavirus 11), the EC50 is > 6 µM. Also, the CC50 at 48 h in series [3] (CC50) is 29.8 µM.

With `Cc1ccnc2c(O)c(C#N)cc(Cl)c12` [Compound 131, 4-methyl-5-chloro-7-cyano-8-hydroxyquinoline], the EC50 in series [1] (human papillomavirus 11) is 0.53 µM; in series [4] (setting [6]) it was 0.55 µM; in series [5] (human papillomavirus 18), 0.14 µM.

Take `N#Cc1c(Cl)c(Cl)c2cccnc2c1O` [Compound 133, 5,6-dichloro-7-cyano-8-hydroxyquinoline]: the EC50 in series [1] (human papillomavirus 11) was > 1.2 µM. The same compound registered a CC50 at 48 h in series [3] (CC50) of 5.59 µM.

In the case of `Cc1cc(C#N)c(O)c2ncccc12` [Compound A1], the EC50 in series [1] (human papillomavirus 11) is > 6 µM. Further, the CC50 at 48 h in series [3] (CC50) was determined as 20.2 µM.

For the compound `O=[N+]([O-])c1ccc(O)c2ncccc12` [Compound A2, 5-nitro-8-hydroxyquinoline, reference compound], the EC50 in series [1] (human papillomavirus 11) came out at 1.04 µM; in series [5] (human papillomavirus 18) it was 1.01 µM.

Regarding `O=[N+]([O-])c1ccc2c(NC3COC3)ccnc2c1O` [Example 19, 7-nitro-4-(3-oxetanylamino)quinolin-8-ol], the EC50 in series [1] worked out at 0.52 µM. The compound further yielded a CC50 in series [2] (setting [7]) of 4 µM.

Take `CN(C)C(=O)N1CCN(c2ccnc3c(O)c([N+](=O)[O-])ccc23)CC1` [Example 25, 4-(8-hydroxy-7-nitroquinolin-4-yl)-N,N-dimethylpiperazine-1-carboxamide]: the EC50 is < 0.05 µM in series [1]; 0.09 µM in series [4] (HPV16 strain KP212151.1, C-33 A cells, 48 hours, read-out: EC50); 0.1 µM in series [5]. Moreover, the figures for the CC50 in series [2] (setting [7]), in series [2] (setting [8]) and in series [2] (setting [9]) were 3.36 µM, 7.53 µM and 5.88 µM, respectively.

The compound `O=[N+]([O-])c1ccc2c(C3CCCCC3)ccnc2c1O` [Example 32, 4-cyclohexyl-7-nitroquinolin-8-ol] yielded a 50% effective concentration (EC50) in series [1] of 3.99 µM. In addition, in series [2], the CC50 is > 150 µM.

Take `Nc1nc2c(ncn2CCOCP(=O)(O)O)c(=O)[nH]1` [Positive control drug, 9-[2-(phosphonylmethoxy)ethyl]guanine, reference compound]: the 90% effect concentration (EC90) in series [1] was 4.47 µM; in series [4] (HPV16 strain KP212151.1, C-33 A cells) it was 2.3 µM; in series [5], > 150 µM. The EC50 in series [1] was 1.26 µM and 1.03 µM. Besides, the CC50 in series [2] (setting [7]), in series [2] (setting [8]) and in series [2] (setting [9]) was > 150 µM throughout.

Usually EC50 stands for the concentration that produces a half-maximal response. For orientation: EC90 means the concentration needed for an effect of 90%.
